Test results from publication PMC7316778 (Nature Communications, 2020).
Where “and” joins values, the source holds several entries; their conditions need not be identical. Equal values may be shown once. Read-outs that look alike come from different tables or passages of the source.

Assays:
Assay in all cases: SelectScreen kinase assay
[1] = molecular target: MYLK2 (skMLCK) (Homo sapiens, UniProt Q9H1R3); conditions: for Inhibition at 1 µM (%): MYLK2 (skMLCK), ZLYTE, ATP Km app
Protocol: (§1) Selectivity profiling assays were performed by the Invitrogen SelectScreen™ Services. […] The concentration of ATP was selected to be equal to the KM, unless indicated otherwise.

[2] = molecular target: CAMK1 (CaMK1) (Homo sapiens, UniProt Q14012); conditions: 1 h, 1 μM WEL028, 1 h preincubation
Protocol: as §1

[3] = test system: KDR (VEGFR2); conditions: IC50 on that kinase divided by IC50 on FES^S700C
Protocol: as §1

[4] = molecular target: KDR (VEGFR2) (Homo sapiens, UniProt P35968)
Protocol: as §1

[5] = molecular target: T1, IRAK3 (Homo sapiens, UniProt Q9Y616)
T1 sequence (Q9Y616 1-596): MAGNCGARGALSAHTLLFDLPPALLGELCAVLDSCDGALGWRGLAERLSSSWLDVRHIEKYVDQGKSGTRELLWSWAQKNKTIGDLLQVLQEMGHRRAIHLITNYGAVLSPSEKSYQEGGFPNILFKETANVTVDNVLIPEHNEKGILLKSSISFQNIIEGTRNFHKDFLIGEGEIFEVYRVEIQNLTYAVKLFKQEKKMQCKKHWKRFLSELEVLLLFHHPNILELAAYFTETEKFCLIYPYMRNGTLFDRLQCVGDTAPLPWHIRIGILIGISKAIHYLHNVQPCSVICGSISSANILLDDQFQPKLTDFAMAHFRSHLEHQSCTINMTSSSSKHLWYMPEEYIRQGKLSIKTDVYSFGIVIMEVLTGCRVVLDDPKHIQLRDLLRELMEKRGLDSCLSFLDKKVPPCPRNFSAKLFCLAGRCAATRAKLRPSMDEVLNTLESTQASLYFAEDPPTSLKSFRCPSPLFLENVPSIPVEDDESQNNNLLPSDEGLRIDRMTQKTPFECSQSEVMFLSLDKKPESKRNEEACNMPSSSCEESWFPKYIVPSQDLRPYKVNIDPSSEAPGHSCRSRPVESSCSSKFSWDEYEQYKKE
Protocol: as §1

[6] = molecular target: RPS6KA2 (RSK3) (Homo sapiens, UniProt Q15349); conditions: 1 h, 1 μM WEL028, 1 h preincubation
Protocol: as §1

[7] = molecular target: EIF2AK2 (PKR) (Homo sapiens, UniProt P19525)
Protocol: as §1

[8] = molecular target: T2, DCAMKL2 (DCK2) (Homo sapiens, UniProt Q8N568)
T2 sequence (Q8N568 1-766): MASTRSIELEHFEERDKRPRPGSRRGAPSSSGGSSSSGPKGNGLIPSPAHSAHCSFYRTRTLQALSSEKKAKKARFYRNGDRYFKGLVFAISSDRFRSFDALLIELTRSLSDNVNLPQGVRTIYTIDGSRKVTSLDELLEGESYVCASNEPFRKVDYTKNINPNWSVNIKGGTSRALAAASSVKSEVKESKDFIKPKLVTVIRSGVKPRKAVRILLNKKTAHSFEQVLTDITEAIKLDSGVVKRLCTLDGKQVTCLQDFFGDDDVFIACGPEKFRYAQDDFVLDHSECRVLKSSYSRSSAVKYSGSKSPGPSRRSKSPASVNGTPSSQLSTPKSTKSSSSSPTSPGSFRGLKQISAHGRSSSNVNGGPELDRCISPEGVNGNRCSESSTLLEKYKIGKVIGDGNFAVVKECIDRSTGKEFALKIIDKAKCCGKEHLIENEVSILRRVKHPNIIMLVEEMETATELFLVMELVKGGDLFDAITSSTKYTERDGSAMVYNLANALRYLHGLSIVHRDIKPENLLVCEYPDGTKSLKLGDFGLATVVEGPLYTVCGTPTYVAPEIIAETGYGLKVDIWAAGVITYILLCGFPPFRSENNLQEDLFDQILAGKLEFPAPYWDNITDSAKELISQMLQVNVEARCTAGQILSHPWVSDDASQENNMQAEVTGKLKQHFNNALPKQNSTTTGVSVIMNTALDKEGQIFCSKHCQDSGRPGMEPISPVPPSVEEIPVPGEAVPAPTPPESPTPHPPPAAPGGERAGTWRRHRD
Protocol: as §1

[9] = molecular target: CLK3 (Homo sapiens, UniProt P49761)
Protocol: as §1

[10] = molecular target: EPHB1 (Homo sapiens, UniProt P54762)
Protocol: as §1

[11] = molecular target: MARK1 (MARK) (Homo sapiens, UniProt Q9P0L2)
Protocol: as §1

[12] = molecular target: PRKCH (PKC eta) (Homo sapiens, UniProt P24723); conditions: 1 h, 1 μM WEL028, 1 h preincubation
Protocol: as §1

[13] = 1 h, 1 μM WEL028, 1 h preincubation

Sequence of MYLK2 (skMLCK) (Q9H1R3 whole entry): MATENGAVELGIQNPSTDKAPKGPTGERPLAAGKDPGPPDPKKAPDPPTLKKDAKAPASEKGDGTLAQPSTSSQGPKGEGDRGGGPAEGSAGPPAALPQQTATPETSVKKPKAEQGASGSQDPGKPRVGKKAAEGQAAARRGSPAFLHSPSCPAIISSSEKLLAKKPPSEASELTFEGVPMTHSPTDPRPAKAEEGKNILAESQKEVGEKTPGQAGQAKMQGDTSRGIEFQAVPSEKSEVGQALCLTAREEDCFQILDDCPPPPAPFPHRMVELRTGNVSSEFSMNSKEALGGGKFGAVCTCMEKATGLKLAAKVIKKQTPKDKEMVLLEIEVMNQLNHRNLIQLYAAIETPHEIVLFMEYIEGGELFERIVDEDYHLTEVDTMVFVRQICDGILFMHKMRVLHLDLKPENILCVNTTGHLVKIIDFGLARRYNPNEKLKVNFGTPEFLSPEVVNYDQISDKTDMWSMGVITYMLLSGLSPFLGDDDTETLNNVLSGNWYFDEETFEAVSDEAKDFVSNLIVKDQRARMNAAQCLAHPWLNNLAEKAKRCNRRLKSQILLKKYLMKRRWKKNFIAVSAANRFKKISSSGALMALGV
Sequence of KDR (VEGFR2) (Homo sapiens, UniProt P35968) (P35968 20-1356, species assumed): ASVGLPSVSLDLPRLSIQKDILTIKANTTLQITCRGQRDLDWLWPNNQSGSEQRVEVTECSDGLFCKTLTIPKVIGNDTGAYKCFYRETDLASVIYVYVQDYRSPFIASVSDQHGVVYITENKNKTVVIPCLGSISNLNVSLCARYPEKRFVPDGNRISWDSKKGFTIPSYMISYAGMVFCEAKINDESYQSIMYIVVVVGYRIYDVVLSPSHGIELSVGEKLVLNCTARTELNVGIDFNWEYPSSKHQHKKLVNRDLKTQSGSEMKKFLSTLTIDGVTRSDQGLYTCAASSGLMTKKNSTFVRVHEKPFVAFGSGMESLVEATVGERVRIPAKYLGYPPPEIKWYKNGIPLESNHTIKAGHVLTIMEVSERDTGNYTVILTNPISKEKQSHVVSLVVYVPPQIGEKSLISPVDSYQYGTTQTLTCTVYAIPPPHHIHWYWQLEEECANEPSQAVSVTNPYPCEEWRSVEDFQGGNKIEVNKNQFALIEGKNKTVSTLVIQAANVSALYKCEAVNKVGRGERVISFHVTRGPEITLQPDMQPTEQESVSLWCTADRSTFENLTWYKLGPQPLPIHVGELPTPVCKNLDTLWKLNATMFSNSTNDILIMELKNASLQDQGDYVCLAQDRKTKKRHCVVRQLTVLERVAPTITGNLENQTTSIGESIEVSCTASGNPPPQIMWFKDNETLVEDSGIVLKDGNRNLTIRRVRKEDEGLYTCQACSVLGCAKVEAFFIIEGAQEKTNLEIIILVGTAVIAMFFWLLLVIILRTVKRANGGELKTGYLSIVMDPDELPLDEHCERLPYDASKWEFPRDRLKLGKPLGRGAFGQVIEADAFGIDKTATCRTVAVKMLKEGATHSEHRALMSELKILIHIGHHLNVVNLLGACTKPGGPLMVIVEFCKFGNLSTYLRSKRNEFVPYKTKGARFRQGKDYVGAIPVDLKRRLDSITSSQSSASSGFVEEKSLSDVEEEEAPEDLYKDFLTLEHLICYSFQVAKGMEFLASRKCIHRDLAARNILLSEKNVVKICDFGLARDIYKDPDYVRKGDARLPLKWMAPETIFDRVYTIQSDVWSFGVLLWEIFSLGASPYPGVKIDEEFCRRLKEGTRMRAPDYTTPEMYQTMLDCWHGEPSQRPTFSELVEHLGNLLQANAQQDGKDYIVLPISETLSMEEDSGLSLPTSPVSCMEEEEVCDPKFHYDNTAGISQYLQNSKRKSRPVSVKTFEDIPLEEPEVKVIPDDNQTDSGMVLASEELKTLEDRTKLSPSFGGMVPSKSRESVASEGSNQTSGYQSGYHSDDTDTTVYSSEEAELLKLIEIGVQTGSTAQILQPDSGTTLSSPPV
Sequence of EIF2AK2 (PKR) (P19525 whole entry): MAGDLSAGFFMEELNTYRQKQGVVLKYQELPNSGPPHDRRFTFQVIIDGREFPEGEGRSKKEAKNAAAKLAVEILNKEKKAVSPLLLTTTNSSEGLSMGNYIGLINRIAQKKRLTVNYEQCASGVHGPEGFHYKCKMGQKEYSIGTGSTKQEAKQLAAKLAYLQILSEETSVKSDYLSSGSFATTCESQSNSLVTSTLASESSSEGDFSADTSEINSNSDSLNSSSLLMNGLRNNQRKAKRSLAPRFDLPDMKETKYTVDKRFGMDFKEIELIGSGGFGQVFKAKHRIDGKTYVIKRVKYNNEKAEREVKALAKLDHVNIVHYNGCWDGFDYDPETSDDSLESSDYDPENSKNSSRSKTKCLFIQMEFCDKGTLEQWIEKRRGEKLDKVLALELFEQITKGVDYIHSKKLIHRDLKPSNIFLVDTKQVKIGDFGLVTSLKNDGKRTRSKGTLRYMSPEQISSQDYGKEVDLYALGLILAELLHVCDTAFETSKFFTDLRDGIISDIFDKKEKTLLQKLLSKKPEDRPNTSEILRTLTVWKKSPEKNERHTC
Sequence of MARK1 (MARK) (Q9P0L2 whole entry): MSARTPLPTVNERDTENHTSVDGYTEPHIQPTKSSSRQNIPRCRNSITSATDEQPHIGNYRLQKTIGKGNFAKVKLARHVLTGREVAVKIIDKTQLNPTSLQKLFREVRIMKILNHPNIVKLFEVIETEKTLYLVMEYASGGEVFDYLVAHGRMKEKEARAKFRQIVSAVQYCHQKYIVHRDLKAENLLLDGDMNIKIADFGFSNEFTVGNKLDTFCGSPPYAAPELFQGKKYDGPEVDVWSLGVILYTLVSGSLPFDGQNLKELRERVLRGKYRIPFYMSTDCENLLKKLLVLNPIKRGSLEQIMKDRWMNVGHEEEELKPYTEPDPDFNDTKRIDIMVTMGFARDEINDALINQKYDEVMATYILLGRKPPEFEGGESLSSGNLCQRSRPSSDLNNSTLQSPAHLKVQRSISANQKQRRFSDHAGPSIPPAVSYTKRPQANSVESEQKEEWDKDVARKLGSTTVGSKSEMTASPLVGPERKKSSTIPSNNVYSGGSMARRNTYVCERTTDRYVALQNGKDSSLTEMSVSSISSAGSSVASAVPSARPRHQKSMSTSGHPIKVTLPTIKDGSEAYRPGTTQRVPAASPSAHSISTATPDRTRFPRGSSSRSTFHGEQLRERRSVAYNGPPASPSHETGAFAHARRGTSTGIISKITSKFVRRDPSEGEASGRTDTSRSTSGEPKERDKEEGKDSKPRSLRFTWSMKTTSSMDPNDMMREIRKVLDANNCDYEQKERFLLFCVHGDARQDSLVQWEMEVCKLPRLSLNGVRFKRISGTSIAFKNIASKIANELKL
Sequence of EPHB1 (P54762 18-984): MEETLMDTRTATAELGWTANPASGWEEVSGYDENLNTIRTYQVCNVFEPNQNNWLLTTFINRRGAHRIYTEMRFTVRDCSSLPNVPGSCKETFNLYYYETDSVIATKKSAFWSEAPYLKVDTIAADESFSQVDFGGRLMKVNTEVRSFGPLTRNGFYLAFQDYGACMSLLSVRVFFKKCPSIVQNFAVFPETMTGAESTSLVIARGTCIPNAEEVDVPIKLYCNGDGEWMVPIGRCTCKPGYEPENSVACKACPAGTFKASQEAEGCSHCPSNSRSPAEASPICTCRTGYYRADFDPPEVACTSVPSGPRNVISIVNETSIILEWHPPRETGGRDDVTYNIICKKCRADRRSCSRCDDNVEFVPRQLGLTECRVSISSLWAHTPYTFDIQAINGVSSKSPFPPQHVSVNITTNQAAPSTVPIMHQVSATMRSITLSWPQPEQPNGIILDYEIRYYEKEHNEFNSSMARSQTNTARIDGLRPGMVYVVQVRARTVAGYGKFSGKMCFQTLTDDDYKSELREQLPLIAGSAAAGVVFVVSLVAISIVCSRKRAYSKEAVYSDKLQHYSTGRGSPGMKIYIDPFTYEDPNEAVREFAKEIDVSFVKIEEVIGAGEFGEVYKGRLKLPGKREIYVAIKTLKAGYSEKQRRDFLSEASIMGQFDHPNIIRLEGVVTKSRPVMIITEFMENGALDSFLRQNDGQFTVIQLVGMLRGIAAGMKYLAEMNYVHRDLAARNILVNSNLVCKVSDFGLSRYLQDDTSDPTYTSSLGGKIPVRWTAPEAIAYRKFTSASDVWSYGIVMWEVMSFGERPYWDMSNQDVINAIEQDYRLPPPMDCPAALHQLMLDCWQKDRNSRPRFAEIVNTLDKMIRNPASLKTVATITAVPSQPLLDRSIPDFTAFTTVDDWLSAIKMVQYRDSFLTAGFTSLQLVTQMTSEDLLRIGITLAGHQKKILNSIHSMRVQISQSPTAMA
Sequence of CLK3 (P49761 whole entry): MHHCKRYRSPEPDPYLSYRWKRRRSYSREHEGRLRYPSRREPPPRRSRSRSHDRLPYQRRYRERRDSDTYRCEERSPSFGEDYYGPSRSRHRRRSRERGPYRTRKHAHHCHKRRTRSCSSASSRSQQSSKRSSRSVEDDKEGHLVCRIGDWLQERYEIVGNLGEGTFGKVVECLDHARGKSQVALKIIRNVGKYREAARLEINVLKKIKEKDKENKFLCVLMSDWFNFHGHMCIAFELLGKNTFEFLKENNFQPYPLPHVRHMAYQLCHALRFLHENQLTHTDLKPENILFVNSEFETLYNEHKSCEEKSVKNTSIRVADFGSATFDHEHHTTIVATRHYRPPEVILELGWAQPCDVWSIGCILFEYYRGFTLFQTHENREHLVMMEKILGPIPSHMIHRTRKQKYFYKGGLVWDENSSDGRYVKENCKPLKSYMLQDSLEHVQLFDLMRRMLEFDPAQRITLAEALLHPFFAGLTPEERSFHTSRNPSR

## C#CCOc1ccc(Nc2ncc(Cl)c(Nc3ccccc3NC(=O)C=C)n2)c(OC)c1 [Compound 6]
[1]; [13]
  inhibition at 1 µM: -3%
[1]
  Inhibition at 1 µM (%): 2%
[1]; listed as WEL028, 1 µM
  Inhibition at 1 µM (%): -8%
[2]
  inhibition at 1 µM: 6%
[3]
  Apparent fold selectivity: 153 fold
[4]
  IC50: 631 nM
[4]; [13]
  inhibition at 1 µM: 67%
[4]; 1 h, log[inhibitor] (M) -5.00, ZLYTE, ATP Km app
  inhibition at 10 µM: 101%
[4]; 1 h, log[inhibitor] (M) -5.48, ZLYTE, ATP Km app
  inhibition at 3.31 µM: 99%
[4]; 1 h, log[inhibitor] (M) -5.95, ZLYTE, ATP Km app
  inhibition at 1.12 µM: 70%
[4]; 1 h, log[inhibitor] (M) -6.43, ZLYTE, ATP Km app
  inhibition at 0.372 µM: 37%
[4]; 1 h, log[inhibitor] (M) -6.91, ZLYTE, ATP Km app
  inhibition at 0.123 µM: 26%
[4]; 1 h, log[inhibitor] (M) -7.39, ZLYTE, ATP Km app
  inhibition at 0.04074 µM: 16%
[4]; 1 h, log[inhibitor] (M) -8.82, ZLYTE, ATP Km app
  inhibition at 0.00151 µM: 17%
[4]; 1 h, log[inhibitor] (M) -9.31, ZLYTE, ATP Km app
  inhibition at 0.00049 µM: 17%
[4]; KDR (VEGFR2), 1 µM, ZLYTE, ATP Km app, listed as WEL028, 1 µM
  Inhibition at 1 µM (%): 65%
[4]; read-out: Inhibition at 1 µM (%), KDR (VEGFR2), 1 µM, ZLYTE, ATP Km app
  inhibition at 1 µM: 69%
[5]; [13]
  inhibition at 1 µM: 56%
[5]; IRAK3, 1 µM, LanthaScreen Binding, listed as WEL028, 1 µM
  Inhibition at 1 µM (%): 58%
[5]; read-out: Inhibition at 1 µM (%), IRAK3, 1 µM, LanthaScreen Binding
  inhibition at 1 µM: 55%
[6]
  inhibition at 1 µM: 19%
[7]; 1 μM WEL028, 1 h preincubation
  Inhibition (%): 4%
[7]; EIF2AK2 (PKR), 1 µM, LanthaScreen Binding, listed as WEL028, 1 µM
  Inhibition at 1 µM (%): 6% and 1%
[8]; [13]
  inhibition at 1 µM: 3%
[8]; DCAMKL2 (DCK2), 1 µM, ZLYTE, ATP Km app, listed as WEL028, 1 µM
  Inhibition at 1 µM (%): 2%
[8]; read-out: Inhibition at 1 µM (%), DCAMKL2 (DCK2), 1 µM, ZLYTE, ATP Km app
  inhibition at 1 µM: 4%
[9]; [13]
  inhibition at 1 µM: 11%
[9]; CLK3, 1 µM, ZLYTE, ATP Km app
  Inhibition at 1 µM (%): 23%
[10]; [13]
  inhibition at 1 µM: 0%
[10]; EPHB1, 1 µM, ZLYTE, ATP Km app, listed as WEL028, 1 µM
  Inhibition at 1 µM (%): -1% and 1%
[11]; [13]
  inhibition at 1 µM: 1%
[11]; MARK1 (MARK), 1 µM, ZLYTE, ATP Km app, listed as WEL028, 1 µM
  Inhibition at 1 µM (%): -1% and 4%
[12]
  inhibition at 1 µM: -4%
